Test results as given in patent US10420734B2, “Method of treating cancer using selective estrogen receptor modulators” (Duke University, priority 2014, dated 2019).
“Also recorded” adds a separate entry of the source.

Assays:
[1] = biological target: T1, ESR1 (Homo sapiens, UniProt P03372); test: Mammalian two-hybrid conformational profiling of ESR1 with peptide probes in SKBR3 cells; assay type: cell-based; set-up: expressed in transfected cells; host or cells: SKBR3
T1 sequence (P03372 1-595): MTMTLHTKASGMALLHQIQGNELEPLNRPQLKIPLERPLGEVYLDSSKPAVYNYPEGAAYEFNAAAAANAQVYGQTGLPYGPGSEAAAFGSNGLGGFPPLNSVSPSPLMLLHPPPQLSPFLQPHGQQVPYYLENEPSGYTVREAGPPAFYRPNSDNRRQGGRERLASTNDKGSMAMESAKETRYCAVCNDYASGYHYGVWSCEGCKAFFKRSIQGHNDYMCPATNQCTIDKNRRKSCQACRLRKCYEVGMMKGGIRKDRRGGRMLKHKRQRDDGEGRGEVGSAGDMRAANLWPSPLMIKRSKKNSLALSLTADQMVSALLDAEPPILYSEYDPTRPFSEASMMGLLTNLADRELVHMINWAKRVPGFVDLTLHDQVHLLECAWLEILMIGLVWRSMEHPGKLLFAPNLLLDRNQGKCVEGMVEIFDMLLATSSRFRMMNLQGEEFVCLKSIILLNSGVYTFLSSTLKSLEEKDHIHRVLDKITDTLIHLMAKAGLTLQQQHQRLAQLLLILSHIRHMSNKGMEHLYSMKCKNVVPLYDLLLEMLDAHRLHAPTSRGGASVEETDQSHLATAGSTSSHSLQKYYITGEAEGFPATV
Procedure: Triplicate wells of SKBR3 cells were transfected (Lipofectin per manufacturer's instructions) with plasmids expressing ERα fused to VP16 together with Gal4DBD alone (control) or fused to ER interacting peptides noted on the horizontal axis. Cells were then treated with RAD1901 (1 nM-1 μM) or the indicated ER ligands (100 nM). Interaction of ERα with the Gal4DBD peptide constructs was detected through activation of a Gal4 responsive luciferase reporter construct and was normalized to detected β-galactosidase activity generated by a co-transfected constitutive expression vector. Ligand classes recognized by each probe are indicated below the graph.
Mammalian 2-hybrid analysis of VP16-ESR1 with conformation-selective peptide probes was performed essentially as previously described (Wardell et al., (2012) Mol Endocrinol 26 (7):1235-1248).
The expression of ESR1 target genes responsive to (FIG. 10A) agonists, (FIG. 10B) primarily SERMs, or (FIG. 10C) SERMs and agonists was analyzed as in FIG. 5. Relative changes of these and additional target genes designed to evaluate dose dependent response to RAD1901 are presented in FIG. 11. Significant target gene regulation (*p<0.05) as compared to the vehicle control was detected by 2 way ANOVA followed by Fisher's LSD (Graphpad Prism 6). […] Triplicate wells of SKBR3 cells were transfected with plasmids expressing ESR1 fused to VP16 together with Gal4DBD alone (control) or Gal4DBD fused to ESR1 interacting peptides noted on the horizontal axis. Cells were then treated with the indicated ESR1 ligands (10^−7 M unless otherwise indicated). Interaction of ESR1 with the Gal4DBD peptide constructs was detected through activation of a Gal4-responsive luciferase reporter construct and was normalized to detected β-galactosidase activity expressed in a constitutive manner using a second vector. Normalized response was expressed as fold increase over the detected level of interaction between Gal4DBD alone and ESR1-VP16 in the absence of ligand (Veh). For FIG. 10E, the effect of SERMs and SERDs (10^−6 M) on the proliferation of MCF7 cells in response to E2 (10^−9 M) or insulin (2×10^−9 M) was evaluated as in FIG. 5. Statistically similar treatments (2-way ANOVA followed by Bonferroni comparison) are indicated by letters. […] The expression of ESR1 target genes responsive to (A) agonists, (B) primarily SERMs, or (C) SERMs and agonists was analyzed using RT qPCR following RNA isolation. mRNA expression was normalized (ΔΔCT analysis) to the similarly detected 36B4 housekeeping. The profiles presented in dendogram format were analyzed with the Ward hierarchical clustering algorithm (JMP 11) using standardized data.

[2] = biological target: T2, human estrogen receptor beta (ESR2) (Homo sapiens, UniProt Q92731); test: ERE-luciferase reporter assay in transiently transfected SKBR3 cells (ESR2); assay type: cell-based; conditions: ESR2 isoform, E2 10 nM, RAD1901 10^-10-10^-6 M, 24 hours
T2 construct: expressed in transfected cells; host or cells: SKBR3
Procedure: The ability of RAD1901 (FIG. 5A) to modulate the […] estradiol (E2) dependent transcriptional activity of the human estrogen receptor alpha (ESR1) and human estrogen receptor beta (ESR2) was assessed in transiently transfected SKBR3 cells using a synthetic reporter gene. […] For FIG. 5B, SKBR3 cells were plated in phenol red free media supplemented with charcoal stripped FBS (CFS) 24 hours prior to transfection with an ERE-luciferase reporter together with ESR1 or ESR2 expression vectors. 24 hours after transfection, cells were treated with E2 (10 nM) together with RAD1901 (10^−10-10^−6 M) for 24 hours prior to harvest and analysis of luciferase activity normalized to co-transfected β-galactosidase control. […] For FIG. 5D, MCF7 cells were plated in phenol red free media supplemented with CFS 24 hours prior to treatment, and were treated with 10^−9 M E2 as well as with the indicated ligands (10^−11-10^−6 M) on days 1, 4, and 6 of an 8 day proliferation assay. DNA content as assessed by fluorescence was measured as a surrogate for cell proliferation. The relative increase in DNA fluorescence was calculated by normalizing to baseline values detected in a duplicate plate of cells that was harvested on day 1 prior to the initial treatment. […] For FIG. 5F, expression of ESR1 target genes in tumors was analyzed essentially as in (C).

T2 sequence (Q92731 whole entry, canonical isoform): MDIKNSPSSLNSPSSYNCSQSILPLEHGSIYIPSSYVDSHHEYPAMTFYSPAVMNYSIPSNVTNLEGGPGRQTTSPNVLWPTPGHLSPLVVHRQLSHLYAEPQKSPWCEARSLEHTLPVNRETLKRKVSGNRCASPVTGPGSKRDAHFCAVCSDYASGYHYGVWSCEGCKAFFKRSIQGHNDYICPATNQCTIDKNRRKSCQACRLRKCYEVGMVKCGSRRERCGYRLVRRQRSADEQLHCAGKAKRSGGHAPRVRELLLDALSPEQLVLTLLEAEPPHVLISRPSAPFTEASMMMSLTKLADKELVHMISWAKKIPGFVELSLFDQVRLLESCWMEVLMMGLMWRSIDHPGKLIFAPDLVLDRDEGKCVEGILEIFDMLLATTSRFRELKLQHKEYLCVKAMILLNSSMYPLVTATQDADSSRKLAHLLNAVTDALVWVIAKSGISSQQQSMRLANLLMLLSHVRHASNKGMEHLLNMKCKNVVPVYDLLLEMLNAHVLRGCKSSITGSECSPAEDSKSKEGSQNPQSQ

SMILES: CCNCCc1ccc(CN(CC)c2cc(OC)ccc2[C@@H]2CCc3cc(O)ccc3C2)cc1 [RAD1901, (R)-6-{2-{ethyl[4-(2-ethylaminoethyl)benzyl]amino}-4-methoxyphenyl}-5,6,7,8-tetrahydronaphthalen-2-ol]
- ESR1 conformation / peptide interaction profile [1]: induces a unique conformation of ERα; also recorded: completely distinct from any other known ligand
- interaction of αII peptide (hinge region surface) [1]: significant interaction
- interaction with peptides reporting ESR1 structures adopted upon binding tamoxifen (aβV) or ICI (βI2) [1]: No interaction was observed
- interaction with peptides that report on agonist activity (ASC1 and PGC1) [1]: decreased interaction
- inhibition of E2-dependent activation of an ERE-luciferase reporter [2]: effectively inhibited
